According to patent US8558019B2, “Thiolated paclitaxels for reaction with gold nanoparticles as drug delivery agents” (Virginia Tech Intellectual Properties, Inc., priority 2007, dated 2013):

System: B16/F10 melanoma cells
Experiment: Efficacy study in tumor-burdened mice, tumor volume and mortality
Format: in vivo, C57BL/6 mice
Conditions: paclitaxel 40 mg/kg, formulations […], day 0, 2, 5 and 7
Procedure: The efficacy of the formulated nanodrugs was compared to that of unformulated paclitaxel for the treatment of tumor-burdened mice. For these studies C57BL/6 mice were implanted with B16/F10 melanoma cells. Once the cells formed tumors with an approximate volume of 500 mm^3 the mice (n=4/group/formulation) received an injection of either unformulated paclitaxel or one of the formulations (Formulations II, IV and XIII). Paclitaxel was given at a dose of 40 mg/kg, whereas the formulated drugs were administered at a dose of 2.5 mg/kg. The mice were treated on day 0, 2, 5 and 7 of the days and tumor responses were determined by measuring tumor volume during the course of the study

CC(=O)O[C@H]1C(=O)[C@@]2(C)[C@H]([C@H](OC(=O)c3ccccc3)[C@]3(O)C[C@H](OC(=O)[C@H](O)[C@@H](NC(=O)c4ccccc4)c4ccccc4)C(C)=C1C3(C)C)[C@]1(OC(C)=O)CO[C@@H]1C[C@@H]2O [unformulated paclitaxel, Paclitaxel]
mortality rate: 75%
